Tested on: SARS-CoV-2 specific substrate (S1/S2 boundary peptide)
Assay type: biochemical
Conditions: substrate 10 ng/well, 25 min incubation, OD 450 nm, FIG. 4

trypsin
lowest amount of enzyme from which cleavage activity can be detected: 10 ng

Source: patent publication US20220049283A1, “Method of detecting SARS-CoV-2 cleavage targeted proprotein convertase and facilitated protease activity” (priority 2020, published 2022)
